From PubChem BioAssay AID2060907 (Molecular Pharmacology Branch, DTP, NCI, 2025)
One block for each molecule: values may come before it.

Tested on: 388556-164-R-J1-PDC complex spheroid viability
Assay: Anticancer human tumor 388556-164-R-J1-PDC patient-derived colon adenocarcinoma cell line growth inhibition [RAS]
Details: for viability, T/C: stronger effect = lower value
Description: RAS pathway inhibitors in Combinations in Complex Spheroids
A high-throughput screen of multi-cell type tumor spheroids was designed to identify active combinations of RAS pathway inhibitors and targeted small molecules. Complex spheroids include a stromal component modeled by human endothelial cells (HUVEC) and fibroblasts modeled by human mesenchymal stem cells (MSCs). The concentration ranges selected for each drug and investigational agent were based upon clinically achievable concentrations if the clinical Cmax of the agent was known.
Compounds. The drugs and investigational agents: abemaciclib (NSC768073), cobimetinib (NSC768068), divarasib (GDC6063, NSC841802), docetaxel (NSC628503), GDC-1971 (RLY-1971, NSC841576), gemcitabine (NSC613327), inavolisib (NSC800729), ipatasertib (NSC767898), KB-0742 (NSC834161), MRTX-1133 (NSC836407), osimertinib (NSC779217), RMC-4630 (NSC839698), RMC-6236 (NSC851965), RMC-6291 (NSC852671), Ro-3306 (NSC812927), sapanisertib (NSC764658), SN-38 (NSC673596), staurosporine (NSC755774), SY5609 (NSC837396), and tovorafenib (DAY101, NSC766906), were obtained from the National Cancer Institute (NCI) Developmental Therapeutics Program Chemical Repository. The FDA-approved anticancer drug set is available from the NCI Developmental Therapeutics Program. […] The stock solutions were prepared in dimethyl sulfoxide (DMSO, Sigma-Aldrich, St. Louis, MO, cat. D2650) at 800-fold the tested concentration and stored at -70 degrees C prior to their use. All drugs and investigational agents were tested over a range starting from a high concentration at or near the clinical Cmax and decreasing in half-log increments. If the clinical Cmax for an agent had not been determined, the highest concentration tested was 10 microM.
Cell Culture. All cells were maintained in an incubator at 37 degrees C and 5% CO2 with 95% humidity. The PDC lines were cultured according to standard operating procedures established by the NCI PDMR. All PDCs were thawed and cultured in Matrigel-coated flasks prepared with a working solution of 1X Ham's F-12 nutrient mix, without supplementation (Invitrogen, Waltham, MA, cat. 11765054), 100 U/mL penicillin-streptomycin (Invitrogen, cat. 15140122), and 2.5% Matrigel (Corning Inc., Corning, NY, cat. 354248) for the first three passages. The 362531-283-R-J2-PDC and 782815-120-R-J1-PDC lines were cultured in 6C/Colon 1B media, which includes advanced DMEM/F-12 (Thermo Fisher Scientific, cat. 12634028), 10 mM HEPES (Thermo Fisher Scientific, cat. 15630080), 1X GlutaMAX supplement (Thermo Fisher Scientific, cat. 35050061), 0.1 mg/mL primocin (InvivoGen, San Diego, CA, cat. ant-pm-2), 10% defined fetal bovine serum, heat inactivated (HyClone Laboratories Inc., Logan, UT, cat. SH30070.03HI), 50% L-WRN conditioned media (ATCC, cat. CRL-3276), 1.25 mM N-Acetyl-L-cysteine (Sigma-Aldrich, cat. A9165), 10 mM nicotinamide (Sigma-Aldrich, cat. N0636), 1X B-27 supplement (Thermo Fisher Scientific, cat. 17504044), 1X N-2 supplement (Thermo Fisher Scientific, cat. 17502048), 50 ng/mL human EGF (Thermo Fisher Scientific, cat. PHG0311), and 10 microM Y-27632 dihydrochloride (Tocris Bioscience, cat. 1254). The K12877-001-R-J1-PDC line was cultured in 6I media, which includes all 6C/Colon 1B media plus 10 ng/mL human FGF-10 (PeproTech, cat. 100-26), 1 ng/mL human FGF-2 (PeproTech, cat. 100-18B), 1 µM prostaglandin E2 (Tocris Bioscience, cat. 2296), […] hydrocortisone (Sigma-Aldrich, cat. H4001), and […] bovine insulin (Sigma-Aldrich, cat. I6634). The K86415-001-R-J1-PDC line was cultured in 6D media, which includes all 6C/Colon 1B media components minus the L-WRN conditioned media. The 485176-168-R4-J1-PDC was cultured in PANC media, which includes all 6C/Colon 1B media plus 100 ng/mL human FGF-10 (PeproTech, cat. 100-26), 500 nM SB-431542 (Selleckchem, cat. S1067), and 10 nM gastrin (Tocris Bioscience, cat. 3006). […]
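Also: spheroids exposed to compound for 7 days before readout.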
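For viability, T/C in this document: 100% = DMSO vehicle control luminescence.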

IC50 (compound alone, run of 09/09/2024): > 1 µM
IC50 (curve of compound): > 1 µM
SMILES: C=CC(=O)N1CCN(c2nc(OCC3CCCN3C)nc3c(F)c(-c4nc(N)cc(C)c4C(F)(F)F)c(Cl)cc23)C(C)C1 (centres undefined)
viability, T/C (compound 0.00316 µM): 100% [middle of 11 runs]
viability, T/C (compound 0.0316 µM): 99.2% [middle of 11 runs]
viability, T/C (compound 0.1 µM): 105% [middle of 11 runs]
viability, T/C (compound 0.316 µM): 102% [middle of 11 runs]
viability, T/C (compound 1 µM): 98% [middle of 11 runs]

IC50 (curve of first compound, second compound 0.00316 µM): > 10 µM
IC50 (curve of first compound, second compound 0.01 µM): > 10 µM
IC50 (curve of first compound, second compound 0.0316 µM): > 10 µM
IC50 (curve of first compound, second compound 0.1 µM): > 10 µM
IC50 (curve of first compound, second compound 0.316 µM): > 10 µM
IC50 (curve of first compound, second compound 1 µM): > 10 µM
SMILES: CC(C)NCC(C(=O)N1CCN(c2ncnc3c2C(C)CC3O)CC1)c1ccc(Cl)cc1 (centres undefined) + C=CC(=O)N1CCN(c2nc(OCC3CCCN3C)nc3c(F)c(-c4nc(N)cc(C)c4C(F)(F)F)c(Cl)cc23)C(C)C1
viability, T/C (second compound 0.00316 µM, first compound 0.0316 µM): 117%
viability, T/C (second compound 0.00316 µM, first compound 0.1 µM): 116%
viability, T/C (second compound 0.00316 µM, first compound 0.316 µM): 107%
viability, T/C (second compound 0.00316 µM, first compound 1 µM): 95.5%
viability, T/C (second compound 0.00316 µM, first compound 3.16 µM): 102%
viability, T/C (second compound 0.00316 µM, first compound 10 µM): 102%
viability, T/C (second compound 0.01 µM, first compound 0.0316 µM): 106%
viability, T/C (second compound 0.01 µM, first compound 0.1 µM): 110%
viability, T/C (second compound 0.01 µM, first compound 0.316 µM): 103%
viability, T/C (second compound 0.01 µM, first compound 1 µM): 108%
viability, T/C (second compound 0.01 µM, first compound 3.16 µM): 90.9%
viability, T/C (second compound 0.01 µM, first compound 10 µM): 105%
viability, T/C (second compound 0.0316 µM, first compound 0.0316 µM): 97.2%
viability, T/C (second compound 0.0316 µM, first compound 0.1 µM): 113%
viability, T/C (second compound 0.0316 µM, first compound 0.316 µM): 110%
viability, T/C (second compound 0.0316 µM, first compound 1 µM): 103%
viability, T/C (second compound 0.0316 µM, first compound 3.16 µM): 105%
viability, T/C (second compound 0.0316 µM, first compound 10 µM): 94.2%
viability, T/C (second compound 0.1 µM, first compound 0.0316 µM): 108%
viability, T/C (second compound 0.1 µM, first compound 0.1 µM): 103%
viability, T/C (second compound 0.1 µM, first compound 0.316 µM): 99.5%
viability, T/C (second compound 0.1 µM, first compound 1 µM): 106%
viability, T/C (second compound 0.1 µM, first compound 3.16 µM): 95.9%
viability, T/C (second compound 0.1 µM, first compound 10 µM): 91%
viability, T/C (second compound 0.316 µM, first compound 0.0316 µM): 106%
viability, T/C (second compound 0.316 µM, first compound 0.1 µM): 112%
viability, T/C (second compound 0.316 µM, first compound 0.316 µM): 105%
viability, T/C (second compound 0.316 µM, first compound 1 µM): 99.3%
viability, T/C (second compound 0.316 µM, first compound 3.16 µM): 111%
viability, T/C (second compound 0.316 µM, first compound 10 µM): 99.1%
viability, T/C (second compound 1 µM, first compound 0.0316 µM): 106%
viability, T/C (second compound 1 µM, first compound 0.1 µM): 104%
viability, T/C (second compound 1 µM, first compound 0.316 µM): 118%
viability, T/C (second compound 1 µM, first compound 1 µM): 99.8%
viability, T/C (second compound 1 µM, first compound 3.16 µM): 100%
viability, T/C (second compound 1 µM, first compound 10 µM): 99.4%
